Calls of active or inactive are those of the source.
What was measured:
[1] = molecular target: T1, RNA-binding protein pos-1 (Caenorhabditis elegans, UniProt G5EF15); test: inhibitors of POS-1/mex-3 RNA binding, dose response, biochemical, fluorescence polarization (AID 1964);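 further: purified POS-1 fused to maltose binding protein made in E. coli; potency of compounds blocking POS-1 binding to fluorescent RNA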
T1 sequence (G5EF15 whole entry): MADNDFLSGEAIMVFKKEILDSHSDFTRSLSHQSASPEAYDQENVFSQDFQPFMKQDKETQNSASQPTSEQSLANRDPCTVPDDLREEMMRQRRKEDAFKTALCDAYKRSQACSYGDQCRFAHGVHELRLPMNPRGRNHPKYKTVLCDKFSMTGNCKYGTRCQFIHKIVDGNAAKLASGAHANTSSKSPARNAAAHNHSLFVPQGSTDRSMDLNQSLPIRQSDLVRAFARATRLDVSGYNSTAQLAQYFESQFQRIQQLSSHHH

[2] = molecular target: T2, Mannose-6-phosphate isomerase (Homo sapiens, UniProt P34949); test: inhibitors of human PMI, primary screen, biochemical, fluorescence intensity, coupled assay (AID 1209)
T2 sequence (P34949 whole entry): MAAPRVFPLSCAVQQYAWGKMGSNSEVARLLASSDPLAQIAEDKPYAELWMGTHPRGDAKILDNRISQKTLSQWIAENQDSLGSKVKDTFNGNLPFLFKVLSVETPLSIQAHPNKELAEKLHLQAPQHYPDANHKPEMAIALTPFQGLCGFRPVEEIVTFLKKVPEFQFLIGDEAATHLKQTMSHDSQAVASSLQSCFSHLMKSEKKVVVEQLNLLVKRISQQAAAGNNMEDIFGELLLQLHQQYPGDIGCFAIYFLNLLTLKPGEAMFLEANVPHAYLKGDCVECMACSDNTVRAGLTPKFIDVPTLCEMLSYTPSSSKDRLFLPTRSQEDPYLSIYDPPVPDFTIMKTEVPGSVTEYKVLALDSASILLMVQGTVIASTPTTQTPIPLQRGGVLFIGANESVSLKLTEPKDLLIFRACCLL

[3] = molecular target: Induced myeloid leukemia cell differentiation protein Mcl-1 (Homo sapiens, UniProt Q07820); format: functional
Induced myeloid leukemia cell differentiation protein Mcl-1, sequence (Q07820 whole entry): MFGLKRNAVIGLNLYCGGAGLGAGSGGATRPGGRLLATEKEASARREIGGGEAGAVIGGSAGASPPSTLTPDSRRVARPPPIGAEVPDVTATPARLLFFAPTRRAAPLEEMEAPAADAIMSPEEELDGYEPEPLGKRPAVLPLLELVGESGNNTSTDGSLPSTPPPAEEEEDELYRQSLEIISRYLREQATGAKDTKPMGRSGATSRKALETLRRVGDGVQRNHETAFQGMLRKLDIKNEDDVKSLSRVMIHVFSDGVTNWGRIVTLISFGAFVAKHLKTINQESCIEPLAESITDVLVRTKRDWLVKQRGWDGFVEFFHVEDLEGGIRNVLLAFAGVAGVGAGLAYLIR

[4] = molecular target: T2, Mannose-6-phosphate isomerase; test: human PMI inhibitors, high substrate, primary screen, biochemical, fluorescence intensity, high mannose 6-phosphate (AID 1220)
[5] = molecular target: Glucose-6-phosphate 1-dehydrogenase (Homo sapiens, UniProt P11413); test: human G6PD enzyme inhibitors, dose response, selectivity assay for P. falciparum G6PD inhibitor project, biochemical, fluorescence (AID 504792); format: functional
Glucose-6-phosphate 1-dehydrogenase, sequence (P11413 whole entry): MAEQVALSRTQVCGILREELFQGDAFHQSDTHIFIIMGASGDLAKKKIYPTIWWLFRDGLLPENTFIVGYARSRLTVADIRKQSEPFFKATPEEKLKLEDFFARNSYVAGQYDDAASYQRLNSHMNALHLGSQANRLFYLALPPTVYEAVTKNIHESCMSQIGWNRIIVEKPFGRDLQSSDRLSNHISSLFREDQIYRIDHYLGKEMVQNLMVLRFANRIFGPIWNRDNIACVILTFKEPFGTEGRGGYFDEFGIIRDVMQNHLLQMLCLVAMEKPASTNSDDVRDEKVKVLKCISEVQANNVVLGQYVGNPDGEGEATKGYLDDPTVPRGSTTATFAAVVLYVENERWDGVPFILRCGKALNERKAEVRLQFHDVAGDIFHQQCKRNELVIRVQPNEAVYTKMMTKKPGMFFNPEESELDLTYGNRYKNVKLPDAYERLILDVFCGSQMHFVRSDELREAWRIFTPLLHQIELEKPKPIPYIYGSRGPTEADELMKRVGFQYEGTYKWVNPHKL

Genome polyprotein = Genome polyprotein (dengue virus type 2, UniProt P29990); test: Dengue-2 NS5 methyltransferase inhibitors, primary screen, biochemical, confirmation dose response (AID 588689); format: functional
Genome polyprotein, sequence (P29990 2492-3391 limits assumed): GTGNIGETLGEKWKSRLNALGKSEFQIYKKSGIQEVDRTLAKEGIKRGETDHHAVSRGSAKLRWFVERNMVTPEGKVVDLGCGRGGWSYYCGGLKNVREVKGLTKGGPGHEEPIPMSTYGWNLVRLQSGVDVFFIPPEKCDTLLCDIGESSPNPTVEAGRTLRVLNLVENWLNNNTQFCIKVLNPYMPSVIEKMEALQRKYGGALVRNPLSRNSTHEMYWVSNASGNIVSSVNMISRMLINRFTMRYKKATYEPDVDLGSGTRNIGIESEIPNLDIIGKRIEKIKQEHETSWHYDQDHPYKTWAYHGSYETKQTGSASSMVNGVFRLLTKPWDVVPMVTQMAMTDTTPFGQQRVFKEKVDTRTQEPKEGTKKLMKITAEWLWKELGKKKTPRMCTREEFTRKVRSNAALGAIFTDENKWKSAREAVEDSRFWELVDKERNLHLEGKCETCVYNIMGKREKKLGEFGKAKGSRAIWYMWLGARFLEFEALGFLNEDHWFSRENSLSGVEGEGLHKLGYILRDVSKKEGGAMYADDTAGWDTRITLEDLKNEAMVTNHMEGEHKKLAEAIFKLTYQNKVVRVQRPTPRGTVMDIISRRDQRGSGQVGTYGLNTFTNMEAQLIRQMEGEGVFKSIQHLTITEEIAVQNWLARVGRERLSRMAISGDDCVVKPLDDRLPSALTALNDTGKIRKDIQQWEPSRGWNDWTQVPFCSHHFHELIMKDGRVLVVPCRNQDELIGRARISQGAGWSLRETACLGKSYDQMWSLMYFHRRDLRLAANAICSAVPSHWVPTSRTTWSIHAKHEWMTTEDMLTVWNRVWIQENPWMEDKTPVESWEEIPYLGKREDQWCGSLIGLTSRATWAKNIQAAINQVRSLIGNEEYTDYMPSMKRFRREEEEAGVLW

Albumin = Albumin (Bos taurus, UniProt P02769); test: Counterscreen for inhibitors of T-cell receptor (TCR)-CD3 interaction: Fluorescence-based biochemical high throughput dose response assay to identify inhibitors of T-cell receptor (TCR)-CD3 interaction using a TAMRA-labeled BSA probe.; format: functional
Albumin, sequence (P02769 whole entry): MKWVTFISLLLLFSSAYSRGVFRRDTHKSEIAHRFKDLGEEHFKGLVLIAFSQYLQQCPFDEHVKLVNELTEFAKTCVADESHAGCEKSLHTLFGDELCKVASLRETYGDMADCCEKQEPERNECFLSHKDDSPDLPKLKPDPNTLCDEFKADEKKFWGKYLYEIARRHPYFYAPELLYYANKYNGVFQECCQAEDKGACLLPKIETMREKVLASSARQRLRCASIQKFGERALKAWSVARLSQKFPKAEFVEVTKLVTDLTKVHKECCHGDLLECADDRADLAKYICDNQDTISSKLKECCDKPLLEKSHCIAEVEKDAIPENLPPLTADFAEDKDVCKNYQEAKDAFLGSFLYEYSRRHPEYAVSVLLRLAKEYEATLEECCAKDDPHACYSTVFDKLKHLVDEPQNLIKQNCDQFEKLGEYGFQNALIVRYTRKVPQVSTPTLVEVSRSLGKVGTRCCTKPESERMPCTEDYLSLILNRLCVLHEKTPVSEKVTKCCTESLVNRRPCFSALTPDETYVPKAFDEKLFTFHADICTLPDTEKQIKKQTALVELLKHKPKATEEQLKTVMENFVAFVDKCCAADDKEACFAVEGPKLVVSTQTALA

Protein Tat = molecular target: T3, Protein Tat (Human immunodeficiency virus type 1 group M subtype B (isolate HXB2)(HIV-1), UniProt P04608); format: functional;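 further: tat binding to TAR RNA read out by fluorescence polarization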
T3 sequence (P04608 whole entry): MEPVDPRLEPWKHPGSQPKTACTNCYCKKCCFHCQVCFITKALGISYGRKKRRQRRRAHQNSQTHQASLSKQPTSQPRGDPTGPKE

[6] = molecular target: Glutathione-S-transferase (Schistosoma japonicum, UniProt Q26513); test: biotin-GST/anti-GST TR-FRET signal inhibitors, dose response, artefact control for Vif-APOBEC3G degradation inhibitor project, biochemical (AID 1117362); format: functional
Glutathione-S-transferase, sequence (Q26513 whole entry): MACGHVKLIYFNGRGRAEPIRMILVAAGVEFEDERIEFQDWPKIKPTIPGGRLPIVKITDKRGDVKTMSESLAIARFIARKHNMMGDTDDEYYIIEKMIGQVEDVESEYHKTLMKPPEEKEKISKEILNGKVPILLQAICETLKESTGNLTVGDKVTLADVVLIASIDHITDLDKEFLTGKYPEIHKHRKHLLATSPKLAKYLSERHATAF

[7] = molecular target: RNA-editing ligase 1, mitochondrial (Trypanosoma brucei brucei, UniProt P86926); test: TbREL1 ligase inhibitors, dose response, biochemical, fluorescence, Trypanosoma brucei (AID 1117295); format: functional
RNA-editing ligase 1, mitochondrial, sequence (P86926 whole entry): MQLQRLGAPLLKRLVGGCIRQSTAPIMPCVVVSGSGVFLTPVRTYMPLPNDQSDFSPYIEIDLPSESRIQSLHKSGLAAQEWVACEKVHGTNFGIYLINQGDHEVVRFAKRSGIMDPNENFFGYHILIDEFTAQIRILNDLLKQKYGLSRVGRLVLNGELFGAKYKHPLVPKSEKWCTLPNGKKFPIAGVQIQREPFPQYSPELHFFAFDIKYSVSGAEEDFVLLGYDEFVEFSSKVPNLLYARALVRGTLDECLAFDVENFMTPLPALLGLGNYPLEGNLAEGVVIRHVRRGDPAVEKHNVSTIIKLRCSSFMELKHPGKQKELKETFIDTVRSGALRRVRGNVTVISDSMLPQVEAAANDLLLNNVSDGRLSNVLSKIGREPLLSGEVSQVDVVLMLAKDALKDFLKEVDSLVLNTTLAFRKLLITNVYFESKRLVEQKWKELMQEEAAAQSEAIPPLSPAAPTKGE

[8] = HeLa 2N DNA content increase, dose response, cell-based, IC50 (AID 1117349); format: functional
[9] = cytotoxicity toward HCT116 cells – cell-based, CellTiter-Glo luminescence, IC50, dose response (AID 1117332); format: functional; details: HCT-116
[10] = SNU-C1 cell viability reduction, dose response, CellTiter-Glo luminescence (AID 1117323); format: functional, cell-based
[11] = HeLa 4N DNA content increase, dose response, cell-based, IC50 (AID 1117351); format: functional
[12] = cytotoxicity toward HT-29 cells – cell-based, CellTiter-Glo luminescence, IC50, dose response (AID 1117330); format: functional
[13] = CellTiter-Glo luminescent dose response of DLD-1 viability loss (AID 1117352); format: functional
[14] = HCT116 cell viability decrease, GSK3B pretreatment – CellTiter-Glo, IC50, dose response (AID 1117339); format: functional; details: HCT-116
[15] = P. falciparum Dd2 growth inhibitors, dose response, SYBR Green, dry powder samples, set 9 (AID 1159568); format: functional, cell-based

## C/N=c1\scc(C)n1/N=C/c1ccc(O)c(O)c1O
[1]
  EC50: > 300 µM (inconclusive)
[2]
  IC50: > 50 µM (not active)
[3]
  IC50: 2.72 µM (active)
[4]
  IC50: > 50 µM (not active)
[5]
  IC50: 44 µM (inactive)
Genome polyprotein
  IC50: 13.9 µM (active)
Albumin
  IC50: > 94.1 µM (inactive)
Protein Tat
  IC50: 49.8 µM (inconclusive)
[6]
  IC50: > 100 µM (active)
[7]
  IC50: > 96.6 µM (inactive)

## O=Cc1ccc(O)c(O)c1O
[8]
  IC50: > 10 µM (inactive)
[9]
  IC50: > 20 µM (inactive)
[10]
  IC50: > 20 µM (inactive)
[11]
  IC50: > 10 µM (inactive)
[12]
  IC50: > 20 µM (inactive)
[13]
  IC50: > 20 µM (inactive)
[14]
  IC50: 0.141 µM (active)

## C[C@@H]1CN([C@H](C)CO)C(=O)c2c(c3ccccc3n2C)-c2ccccc2CO[C@@H]1CN(C)S(=O)(=O)c1ccc([N+](=O)[O-])cc1
[15]
  AC50: 7.62 µM (active)
